Legend:
[1] = Inhibition of rat recombinant geranylgeranyltransferase type I expressed in Escherichia coli assessed as reduction in geranylgeranylation of RhoA incubated for 30 mins in presence of [3H]GGPP by scintillation counting assay relative to control
[2] = molecular target: T1, Geranylgeranyl transferase type-2 (Homo sapiens, UniProt P53611+Q92696); assay: Inhibition of RabGGTase (unknown origin) using YPTI as substrate protein and [3H]geranylgeranyl pyrophosphate incubated for 20 mins by scintillation counting assay; type: protein-complex assay
T1 sequence (P53611 whole entry): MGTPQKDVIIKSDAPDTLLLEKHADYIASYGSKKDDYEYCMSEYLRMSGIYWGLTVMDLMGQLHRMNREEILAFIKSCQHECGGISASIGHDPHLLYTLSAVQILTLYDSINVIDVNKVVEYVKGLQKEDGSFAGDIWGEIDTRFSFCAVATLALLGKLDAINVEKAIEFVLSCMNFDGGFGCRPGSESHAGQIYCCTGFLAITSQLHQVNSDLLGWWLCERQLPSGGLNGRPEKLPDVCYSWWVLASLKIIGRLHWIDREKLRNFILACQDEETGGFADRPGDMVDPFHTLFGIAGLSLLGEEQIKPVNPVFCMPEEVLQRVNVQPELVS
T1 sequence (Q92696 whole entry): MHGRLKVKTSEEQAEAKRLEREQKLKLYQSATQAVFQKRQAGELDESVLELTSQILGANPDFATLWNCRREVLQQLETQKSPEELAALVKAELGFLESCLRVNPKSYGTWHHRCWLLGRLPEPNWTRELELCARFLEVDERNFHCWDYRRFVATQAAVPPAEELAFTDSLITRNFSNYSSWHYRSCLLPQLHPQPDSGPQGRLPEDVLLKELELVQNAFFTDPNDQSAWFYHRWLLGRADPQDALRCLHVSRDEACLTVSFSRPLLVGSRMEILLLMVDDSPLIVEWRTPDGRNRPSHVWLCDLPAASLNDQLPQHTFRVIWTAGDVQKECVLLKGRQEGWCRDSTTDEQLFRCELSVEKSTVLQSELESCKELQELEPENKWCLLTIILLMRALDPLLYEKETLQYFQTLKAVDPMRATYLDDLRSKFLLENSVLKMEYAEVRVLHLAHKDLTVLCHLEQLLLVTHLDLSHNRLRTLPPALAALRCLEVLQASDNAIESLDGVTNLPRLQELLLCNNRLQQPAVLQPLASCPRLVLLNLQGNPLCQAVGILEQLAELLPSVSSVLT

[3] = molecular target: Protein farnesyltransferase (Rattus norvegicus, UniProt Q02293+Q04631); assay: Inhibition of rat recombinant FTase alpha/beta expressed in Escherichia coli using K-Ras4B as a substrate as and [3H]farnesyl pyrophosphate incubated for 30 mins by scintillation counting assay
[4] = Inhibition of rat recombinant geranylgeranyltransferase type I expressed in Escherichia coli assessed as reduction in geranylgeranylation of K-Ras4B incubated for 30 mins in presence of [3H]GGPP by scintillation counting assay
Rattus norvegicus [5] = species on record: Rattus norvegicus; assay: Inhibition of rat recombinant geranylgeranyltransferase type I expressed in Escherichia coli assessed as residual enzyme activity for geranylgeranylation of K-Ras4B at 50 uM incubated for 30 mins in presence of [3H]GGPP by scintillation counting assay relative to control
Rattus norvegicus [6] = species on record: Rattus norvegicus; assay: Inhibition of rat recombinant geranylgeranyltransferase type I expressed in Escherichia coli assessed as residual enzyme activity for geranylgeranylation of RhoA at 50 uM incubated for 30 mins in presence of [3H]GGPP by scintillation counting assay relative to control
Jurkat = assay: Antiproliferative activity against human Jurkat cells assessed as inhibition of cell proliferation incubated for 72 hrs by CCK8 assay; type: functional, cell-based
K562 = assay: Antiproliferative activity against human K562 cells assessed as inhibition of cell proliferation incubated for 72 hrs by CCK8 assay; type: functional, cell-based; conditions: K562, 72 h

Compound: CCCCCCS[C@H]1[C@@H](C(=O)O)[C@H](c2ccc(Br)cc2)N(S(=O)(=O)c2ccc(C)cc2)[C@@H]1CCCCCC
- IC50 [1]: > 50 µM
- IC50 [2]: 2.2 µM
- IC50 [3]: > 100 µM

Compound: CCCCC[C@@H]1[C@@H](Sc2ccc(C)cc2)[C@H](C(=O)O)[C@H](c2ccc(C)cc2)N1S(=O)(=O)c1ccc(C)cc1
- IC50 [1]: 100 µM
- IC50 [4]: 65 µM

Compound: Cc1ccc(S(=O)(=O)N2[C@@H](c3ccc(Cl)c(Cl)c3)C(C(=O)O)=C[C@H]2C(C)(C)C)cc1
- IC50 [1]: 40 µM
- IC50 [4]: 33 µM

Compound: CC(C)(C)OC(=O)CCS[C@H]1[C@@H](C(=O)O)[C@H](c2ccc(Cl)cc2)N(S(=O)(=O)c2ccccc2)[C@@H]1CC1CCCC1
- Activity (Rattus norvegicus [5]): 30.4%
- IC50 [1]: 2.4 µM
- IC50 [2]: 7 µM
- IC50 [3]: > 100 µM
- Activity (Rattus norvegicus [6]): 9.7%

Compound: CC(C)(C)[C@@H]1C=C(C(=O)O)[C@H](c2ccccc2)N1S(C)(=O)=O
- IC50 [1]: 23 µM
- IC50 [4]: 15 µM

Compound: Cc1ccc(S(=O)(=O)N2[C@H](C)C=C(C(=O)O)[C@@H]2c2cccc(Cl)c2)cc1
- IC50 [1]: 30 µM
- IC50 [4]: 20 µM

Compound: CC(C)(C)[C@@H]1C=C(C(=O)O)[C@H](c2ccc(Cl)cc2)N1S(C)(=O)=O
- IC50 [1]: > 50 µM
- IC50 [4]: 45 µM

Compound: Cc1ccc(S(=O)(=O)N2[C@@H](c3cccc(F)c3)C(C(=O)O)=C[C@H]2C(C)(C)C)cc1
- Activity (Rattus norvegicus [5]): 23.7%
- IC50 [1]: 23 µM
- IC50 [4]: 18 µM
- Activity (Rattus norvegicus [6]): 9.1%

Compound: Cc1ccc(S(=O)(=O)N2[C@H](C)C=C(C(=O)O)[C@@H]2c2ccc(Cl)c(Cl)c2)cc1
- IC50 [1]: 45 µM
- IC50 [4]: 38 µM

Compound: CC(C)(C)[C@@H]1C=C(C(=O)N[C@@H](Cc2ccccc2)C(N)=O)[C@H](c2ccc(Cl)c(Cl)c2)N1S(=O)(=O)c1c(Cl)cccc1Cl
- IC50 [1]: > 50 µM
- GI50 (Jurkat): 4.91 to 5.28 µM

Compound: CCC[C@@H]1[C@@H](Sc2ccc(OC)cc2)[C@@H](C(=O)O)[C@H](c2ccc(Cl)c(Cl)c2)N1S(=O)(=O)c1ccc(C)cc1
- Activity (Rattus norvegicus [5]): 10.9%
- IC50 [1]: < 2.5 µM
- IC50 [4]: < 2 µM
- Activity (Rattus norvegicus [6]): 1.1%

Compound: COC(=O)[C@H](CC(C)C)NC(=O)C1=CC[C@@H](c2ccc(Cl)cc2)N(S(=O)(=O)c2ccccc2C)[C@H]1c1cccc(Cl)c1
- IC50 [1]: 20 to 50 µM
- GI50 (Jurkat): 3.53 to 6.1 µM

Compound: COC(=O)[C@H](CC(C)C)NC(=O)c1ccc(NCc2cnc[nH]2)cc1-c1ccccc1C
- IC50 [1]: 0.5 µM
- IC50 [4]: 0.6 µM

Compound: Cc1ccccc1S(=O)(=O)N1[C@@H](c2cccc(Cl)c2)C(CO)=CC[C@H]1c1ccc(Cl)cc1
- GI50 (K562): 5.8 µM
- IC50 [1]: > 100 µM
- GI50 (Jurkat): 7.5 µM

Compound: COC(=O)[C@H](Cc1ccccc1)NC(=O)COCC1=C[C@@H](C(C)(C)C)N(S(=O)(=O)c2ccccc2C)[C@H]1c1ccc(Cl)cc1
- IC50 (K562): 5.8 to 6.01 µM
- IC50 [1]: 2.1 to 20 µM
- GI50 (Jurkat): 3.51 to 5.1 µM

Compound: Cc1ccccc1S(=O)(=O)N1[C@@H](c2ccc(Cl)cc2)C(C(N)=O)=C[C@H]1C(C)(C)C
- IC50 (K562): 11 µM

Compound: CCCCCCS[C@H]1[C@@H](C(=O)O)[C@H](c2ccc(Br)cc2)N(S(=O)(=O)c2ccc(C)cc2)[C@@H]1CC
- IC50 [1]: > 50 µM
- IC50 [2]: 4.8 µM
- IC50 [3]: > 100 µM

Compound: CCCCCS[C@H]1[C@@H](C(=O)O)[C@H](c2ccc(Br)cc2)N(S(=O)(=O)c2ccc(C)cc2)[C@@H]1CCC
- IC50 [1]: > 50 µM
- IC50 [2]: 3.6 µM
- IC50 [3]: > 100 µM

Compound: CC(C)(C)[C@@H]1C=C(C(=O)N[C@@H](Cc2ccccc2)C(N)=O)[C@H](c2ccc(Cl)c(Cl)c2)N1S(=O)(=O)C(C)(C)C
- GI50 (K562): 4.22 to 5.9 µM
- IC50 [1]: 2.7 to 50 µM
- GI50 (Jurkat): 4.57 to 5.91 µM

Compound: CCCCCCS[C@H]1[C@@H](C(=O)O)[C@H](c2ccc(Cl)c(Cl)c2)N(S(=O)(=O)c2ccc(C)cc2)[C@@H]1CCC
- IC50 [1]: 5.1 µM
- IC50 [2]: 7 µM
- IC50 [3]: > 100 µM

Compound: COC(=O)[C@H](Cc1ccccc1)NC(=O)C1=C[C@@H](C(C)(C)C)N(S(=O)(=O)c2ccccc2C)[C@H]1c1ccc(Cl)cc1
- GI50 (K562): 14 to 17 µM
- IC50 (K562): 10.5 µM
- IC50 [1]: > 50 µM
- GI50 (Jurkat): 10.5 to 19 µM

Compound: CCC[C@@H]1[C@@H](Sc2ccc(OC)cc2)[C@@H](C(=O)O)[C@H](c2ccc(Br)cc2)N1S(=O)(=O)c1ccc(C)cc1
- IC50 [1]: > 50 µM
- IC50 [2]: 4.5 µM
- IC50 [3]: > 100 µM

Compound: Cc1ccc(S(=O)(=O)N2[C@H](CC3CCCC3)[C@@H](SCCC(=O)OC(C)(C)C)[C@@H](C(=O)O)[C@@H]2c2cccc(Cl)c2)cc1
- Activity (Rattus norvegicus [5]): 20.6%
- IC50 [1]: 8.7 µM
- IC50 [2]: 4.7 µM
- IC50 [3]: > 100 µM
- Activity (Rattus norvegicus [6]): 5.6%

Compound: NC(=O)[C@H](Cc1ccccc1)NC(=O)C1=CC[C@@H](c2cccc(Cl)c2)N(S(=O)(=O)c2ccc(Br)cc2)[C@H]1c1cccc(Cl)c1
- GI50 (K562): 7.69 to 10.3 µM
- IC50 [1]: 1.3 to 20 µM
- GI50 (Jurkat): 3.57 to 4.86 µM

Compound: CC(C)C[C@H](NC(=O)C1=CC[C@@H](c2cccc(Cl)c2)N(S(=O)(=O)c2ccc(Br)cc2)[C@H]1c1cccc(Br)c1)C(N)=O
- GI50 (K562): 4.37 to 12.9 µM
- IC50 [1]: > 50 µM
- GI50 (Jurkat): 2.22 to 6.38 µM

Compound: Cc1ccccc1S(=O)(=O)N1[C@@H](c2cccc(Cl)c2)C(C(N)=O)=CC[C@H]1c1ccc(Cl)cc1
- IC50 [1]: > 20 µM
- GI50 (Jurkat): 5.36 µM

Compound: CC(C)(C)[C@@H]1C=C(C(=O)N[C@@H](Cc2ccccc2)C(N)=O)[C@H](c2ccc(Cl)c(Cl)c2)N1S(=O)(=O)c1ccccc1Br
- IC50 [1]: > 20 µM

Compound: CC(C)C[C@H](NC(=O)C1=CC[C@@H](c2cccc(Cl)c2)N(S(=O)(=O)c2ccc(Br)cc2)[C@H]1c1cccc(Br)c1)C(=O)O
- IC50 [1]: 0.04 µM

Compound: Cc1ccc(S(=O)(=O)N2[C@@H](c3ccccc3)C(C(=O)O)=CC[C@H]2c2ccc(F)cc2)cc1
- IC50 [1]: 120 µM
- IC50 [4]: 80 µM

Compound: Cc1cccc([C@@H]2CC=C(C(=O)O)[C@H](c3cccc(Br)c3)N2S(=O)(=O)c2ccc(Br)cc2)c1
- IC50 [1]: 0.33 µM

Compound: CC(C)C[C@H](NC(=O)C1=CC[C@@H](c2cccc(Br)c2)N(S(=O)(=O)c2ccc(F)cc2)[C@H]1c1cccc(Cl)c1)C(N)=O
- GI50 (K562): 1.7 to 10.2 µM
- IC50 [1]: 6.9 to 32.9 µM
- GI50 (Jurkat): 0.32 to 1.76 µM

Compound: CC[C@@H]1C=C(C(=O)O)[C@H](c2ccc(F)cc2)N1S(=O)(=O)c1ccc(C)cc1
- IC50 [1]: 200 µM
- IC50 [4]: 250 µM

Compound: CCOC(=O)C1=C[C@@H](C(C)(C)C)N(S(=O)(=O)c2ccccc2C)[C@H]1c1ccc(Cl)cc1
- IC50 (K562): > 25 µM

Compound: CC(C)C[C@H](NC(=O)C1=CC[C@@H](c2cccc(Cl)c2)N(S(=O)(=O)c2ccc(Br)cc2)[C@H]1c1cccc(Cl)c1)C(N)=O
- IC50 [1]: > 20 µM

Compound: O=C(N[C@@H](Cc1ccccc1)C(=O)O)C1=CC[C@@H](c2cccc(Cl)c2)N(S(=O)(=O)c2ccc(Br)cc2)[C@H]1c1cccc(Br)c1
- IC50 [1]: 0.032 µM

Compound: CC(C)(C)OC(=O)CCS[C@H]1[C@@H](C(=O)O)[C@H](c2ccc(Cl)cc2)N(S(=O)(=O)c2ccc(Cl)cc2)[C@@H]1CC1CCCC1
- Activity (Rattus norvegicus [5]): 22.5%
- IC50 [1]: 8.9 µM
- IC50 [2]: 3.1 µM
- IC50 [3]: > 100 µM
- Activity (Rattus norvegicus [6]): 9.8%

Compound: O=C(O)C1=CC[C@@H](c2cccc(Br)c2)N(S(=O)(=O)c2ccc(Cl)cc2)[C@H]1c1cccc(Cl)c1
- IC50 [1]: 0.125 to 0.154 µM
